This is an account of results in patent publication US20210024455A1 (priority 2018, published 2021).

A word on the inhibition: it is the percentage by which the read-out fell short of the control.

One assay addresses T1, TRF2 (Homo sapiens, UniProt Q15554).
T1 sequence (Q15554 1-542): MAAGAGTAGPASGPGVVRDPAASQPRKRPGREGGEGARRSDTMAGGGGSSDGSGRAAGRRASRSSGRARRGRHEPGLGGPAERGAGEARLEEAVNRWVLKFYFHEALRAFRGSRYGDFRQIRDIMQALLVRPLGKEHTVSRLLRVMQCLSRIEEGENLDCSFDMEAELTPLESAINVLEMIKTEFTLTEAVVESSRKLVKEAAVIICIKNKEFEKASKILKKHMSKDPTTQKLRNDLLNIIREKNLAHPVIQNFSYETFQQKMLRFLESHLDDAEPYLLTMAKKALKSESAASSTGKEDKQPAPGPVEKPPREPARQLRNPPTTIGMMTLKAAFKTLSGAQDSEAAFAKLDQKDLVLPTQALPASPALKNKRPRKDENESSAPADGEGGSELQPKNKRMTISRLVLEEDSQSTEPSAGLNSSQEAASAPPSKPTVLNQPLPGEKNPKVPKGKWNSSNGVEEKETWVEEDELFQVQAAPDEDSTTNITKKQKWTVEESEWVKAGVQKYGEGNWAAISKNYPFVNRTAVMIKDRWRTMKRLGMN
The assay can be described thus: biochemical. The class given is binding. To be noted: read-out: inhibition rate (%) in DSE FRET assay.

A further assay has as its system HeLa1.2.11 cells. As to the kind of experiment: cells. The class given is cell-based. To be noted: read-out: IC50, suppressing proliferation of HeLa1.2.11 cells.

Take `O=[N+]([O-])c1cc([N+](=O)[O-])c(Oc2ccccc2N(c2ccccc2)c2ccccc2)c([N+](=O)[O-])c1` [compound 144]: the inhibition at 50 µM on TRF2 worked out at 38.3%. Besides, the IC50 with HeLa1.2.11 cells amounted to 31 µM.
Turning to `Cc1ccc(N(c2ccccc2)c2ccccc2Oc2c([N+](=O)[O-])cc([N+](=O)[O-])cc2[N+](=O)[O-])cc1` [compound 145], the inhibition at 50 µM at TRF2 was determined as 38.7%. Besides, the IC50 with HeLa1.2.11 cells is 26 µM.
In the same order, the values of `CC(=O)c1ccc(N(c2ccccc2)c2ccccc2Oc2c([N+](=O)[O-])cc([N+](=O)[O-])cc2[N+](=O)[O-])cc1` [compound 168] are 25.5% and 43 µM.
Take `CC(=O)c1ccc(N(c2ccc(C(C)=O)cc2)c2ccccc2Oc2c([N+](=O)[O-])cc([N+](=O)[O-])cc2[N+](=O)[O-])cc1` [compound 171]: the inhibition at 50 µM on TRF2 was 24.7%. The IC50 with HeLa1.2.11 cells turned out to be 48 µM.
Turning to `CC(C)(C)c1ccc(Oc2c([N+](=O)[O-])cc([N+](=O)[O-])cc2[N+](=O)[O-])c(N(c2ccccc2)c2ccccc2)c1` [compound 192], the inhibition at 50 µM on TRF2 was 33.6%. Also, the IC50 with HeLa1.2.11 cells turned out to be 24 µM.
Regarding `CC(=O)c1ccc(N(c2ccccc2)c2cc(C(C)(C)C)ccc2Oc2c([N+](=O)[O-])cc([N+](=O)[O-])cc2[N+](=O)[O-])cc1` [compound 201], at TRF2, the inhibition at 50 µM was determined as 23%. For the same molecule, the IC50 with HeLa1.2.11 cells is 15 µM.
With `COc1ccc(N(c2ccccc2)c2ccccc2Oc2c([N+](=O)[O-])cc([N+](=O)[O-])cc2[N+](=O)[O-])cc1` [compound 204], on TRF2, the inhibition at 50 µM came to 20.4%. For the same molecule, the IC50 in the assay on HeLa1.2.11 cells was found to be 20 µM.
As to `CC(=O)c1ccc(N(c2ccc(C)cc2)c2ccccc2Oc2c([N+](=O)[O-])cc([N+](=O)[O-])cc2[N+](=O)[O-])cc1` [compound 225], the inhibition at 50 µM at TRF2 came to 36.9%. Also, in the assay with HeLa1.2.11 cells, the IC50 worked out at 28 µM.
Consider `CC(=O)c1ccc(N(c2ccc(C(C)(C)C)cc2)c2ccccc2Oc2c([N+](=O)[O-])cc([N+](=O)[O-])cc2[N+](=O)[O-])cc1` [compound 227], for which the inhibition at 50 µM on TRF2 was 18.4%. Further, the IC50 in the assay with HeLa1.2.11 cells is 18 µM.
For the molecule `Cc1cc([N+](=O)[O-])cc([N+](=O)[O-])c1Oc1ccccc1N(c1ccccc1)c1ccc(C(C)(C)C)cc1` [compound 228], the inhibition at 50 µM on TRF2 amounted to 11.8%. Further, the IC50 in the assay on HeLa1.2.11 cells worked out at 20 µM.
Take `COc1ccc(N(c2ccccc2)c2cc(C(C)(C)C)ccc2Oc2c([N+](=O)[O-])cc([N+](=O)[O-])cc2[N+](=O)[O-])cc1` [compound #207]: the inhibition at 50 µM at TRF2 was found to be 23.7%. Also, the IC50 with HeLa1.2.11 cells was 19 µM.
